Biological target: Transthyretin (Homo sapiens) (UniProt P02766)
Assay: Binding affinity against prealbumin

| Compound | Delta G |
| --- | --- |
| CCc1cc(C)c(Oc2cc(C)c(CC(N)C(=O)O)c(C)c2I)c(C)c1I (stereo unspecified) | -7.6 kcal/M |
| CCc1cc(C)c(Oc2c(I)c(C)c(CC(N)C(=O)O)c(C)c2I)c(C)c1CC(C)C (stereo unspecified) | -8.4 kcal/M |
| CCc1cc(C)c(Oc2c(I)c(C)c(CC(N)C(=O)O)c(C)c2I)c(C)c1C(C)(C)C (stereo unspecified) | -8 kcal/M |
| CCc1cc(C)c(Oc2cc(C)c(CC(N)C(=O)O)c(C)c2I)c(C)c1 (stereo unspecified) | -5.2 kcal/M |
| CCc1c(I)c(C)c(Oc2c(I)c(C)c(CC(N)C(=O)O)c(C)c2I)c(C)c1I (stereo in doubt; 26) | -8.7 kcal/M |
| CCc1c(I)c(C)c(Oc2c(I)c(C)c(CC(N)C(=O)O)c(C)c2I)c(C)c1I (stereo in doubt; 2) | -10.7 kcal/M |
| CCc1cc(C)c(Oc2c(I)c(C)c(CC(N)C(=O)O)c(C)c2I)c(C)c1C (stereo unspecified) | -7.4 kcal/M |
| CCc1c(C)c(C)c(Oc2c(I)c(C)c(CC(N)C(=O)O)c(C)c2I)c(C)c1C (stereo unspecified) | -6.6 kcal/M |
| CCc1c(I)c(C)c(Oc2c(I)c(C)c(CC(=O)O)c(C)c2I)c(C)c1I | -11.9 kcal/M |
| CCc1c(I)c(C)c(Oc2c(I)c(C)c(CCN)c(C)c2I)c(C)c1I | -9.7 kcal/M |
| CCc1c(I)c(C)c(Oc2c(I)c(C)c(CCCC(=O)O)c(C)c2I)c(C)c1I | -11.3 kcal/M |
| CCc1c(I)c(C)c(Oc2c(C)c(C)c(CC(N)C(=O)O)c(C)c2C)c(C)c1I (stereo unspecified) | -7.7 kcal/M |
| CCc1c(Br)c(C)c(Oc2c(I)c(C)c(CC(N)C(=O)O)c(C)c2I)c(C)c1Br (stereo unspecified) | -9.2 kcal/M |
| CCCc1c(CC)cc(C)c(Oc2c(I)c(C)c(CC(N)C(=O)O)c(C)c2I)c1C (stereo unspecified) | -7.6 kcal/M |
| CCc1cc(C)c(Oc2c(I)c(C)c(CC(N)C(=O)O)c(C)c2I)c(C)c1Br (stereo unspecified) | -8.2 kcal/M |
| CCc1cc(C)c(Oc2c(I)c(C)c(CC(=O)O)c(C)c2I)c(C)c1I | -9.7 kcal/M |
| CCc1cc(C)c(Oc2c(I)c(C)c(CC(N)C(=O)O)c(C)c2I)c(C)c1Cl (stereo unspecified) | -7.7 kcal/M |
| CCc1cc(C)c(Oc2c(C)c(C)c(CC(N)C(=O)O)c(C)c2C)c(C)c1I (stereo unspecified) | -7.8 kcal/M |
| CCc1cc(C)c(Oc2c(I)c(C)c(CC(N)C(=O)O)c(C)c2I)c(C)c1I (stereo in doubt; 21) | -7 kcal/M |
| CCc1cc(C)c(Oc2c(I)c(C)c(CC(N)C(=O)O)c(C)c2I)c(C)c1 (stereo unspecified) | -7.1 kcal/M |
| CCc1cc(C)c(Oc2c(I)c(C)c(CC(N)C(=O)O)c(C)c2I)c(C)c1I (stereo in doubt; 1) | -9.2 kcal/M |
| CCc1cc(C)c(Oc2c(I)c(C)c(CC(N)C(=O)O)c(C)c2I)c(C)c1C(C)C (stereo unspecified) | -7.8 kcal/M |
| CCc1c(I)c(C)c(Oc2c(I)c(C)c(C(=O)O)c(C)c2I)c(C)c1I | -11.1 kcal/M |
| CCc1c(I)c(C)c(Oc2c(I)c(C)c(CCC(=O)O)c(C)c2I)c(C)c1I | -11.4 kcal/M |
| CCc1c(I)c(C)c(Oc2cc(C)c(CC(N)C(=O)O)c(C)c2I)c(C)c1I (stereo unspecified) | -10 kcal/M |
| CCc1cc(C)c(Oc2c(I)c(C)c(CC(N)C(=O)O)c(C)c2I)c(C)c1C(C)CC (stereo unspecified) | -9 kcal/M |
